# According to patent publication US5721107A, “Antibodies to G protein coupled glutamate receptors” (priority 1995, dated 1998):
# Where two headings read alike, the source gives them in different places.
# Legend:
# [1] = test system: glutamate G protein coupled receptor; assay: Voltage-clamp assay of injected oocytes, inhibition of glutamic acid-evoked current by putative antagonist; type: cell-based, rat; conditions: antagonist 1 mM
# Experimental: Voltage clamp assays were also carried out on injected oocytes to measure the inhibition by the putative glutamate G protein coupled receptor antagonist, 2-amino-3-phosphonopropionic acid (AP3).
# [2] = molecular target: T1, GluG R encoded by clone 45-A (Rattus norvegicus, UniProt P23385); type: cell-based; conditions: normalized to 100 μM L-glutamate
# T1 construct: expressed in transfected cells; host or cells: Xenopus oocytes injected with in vitro transcribed RNA of clone 45-A (cDNA in pVEGT')
# T1 sequence (P23385 33-1199): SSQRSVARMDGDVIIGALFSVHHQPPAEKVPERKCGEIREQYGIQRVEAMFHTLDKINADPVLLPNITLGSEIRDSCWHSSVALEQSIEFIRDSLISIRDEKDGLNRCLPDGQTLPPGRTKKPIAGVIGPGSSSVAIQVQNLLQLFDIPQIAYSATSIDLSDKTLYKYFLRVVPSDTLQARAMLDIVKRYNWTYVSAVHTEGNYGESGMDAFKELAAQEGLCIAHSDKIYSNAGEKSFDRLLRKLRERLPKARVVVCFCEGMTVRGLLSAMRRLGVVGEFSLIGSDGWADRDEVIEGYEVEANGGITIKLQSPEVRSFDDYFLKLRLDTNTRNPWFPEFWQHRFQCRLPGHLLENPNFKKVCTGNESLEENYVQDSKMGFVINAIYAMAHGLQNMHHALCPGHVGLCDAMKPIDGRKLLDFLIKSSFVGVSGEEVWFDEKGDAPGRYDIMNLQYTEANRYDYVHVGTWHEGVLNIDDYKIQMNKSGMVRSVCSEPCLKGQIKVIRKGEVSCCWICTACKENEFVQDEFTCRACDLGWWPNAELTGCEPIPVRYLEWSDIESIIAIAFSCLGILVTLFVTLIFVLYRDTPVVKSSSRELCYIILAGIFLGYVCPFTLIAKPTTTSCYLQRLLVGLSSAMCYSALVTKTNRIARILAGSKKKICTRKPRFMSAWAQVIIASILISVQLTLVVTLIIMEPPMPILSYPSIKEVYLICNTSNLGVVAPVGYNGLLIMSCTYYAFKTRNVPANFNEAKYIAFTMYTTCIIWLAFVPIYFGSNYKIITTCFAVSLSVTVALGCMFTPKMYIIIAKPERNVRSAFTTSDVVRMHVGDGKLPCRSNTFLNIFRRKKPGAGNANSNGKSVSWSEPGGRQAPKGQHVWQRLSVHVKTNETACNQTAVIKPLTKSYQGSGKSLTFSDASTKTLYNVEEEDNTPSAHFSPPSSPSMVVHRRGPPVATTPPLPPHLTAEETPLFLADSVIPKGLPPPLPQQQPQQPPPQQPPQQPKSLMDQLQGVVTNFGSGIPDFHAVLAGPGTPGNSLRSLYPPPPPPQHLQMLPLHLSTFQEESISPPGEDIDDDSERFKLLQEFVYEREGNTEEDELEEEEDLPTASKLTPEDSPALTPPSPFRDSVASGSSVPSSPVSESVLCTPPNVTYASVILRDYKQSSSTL
# [3] = test system: rat G protein coupled glutamate receptor; assay: Competition of tritiated glutamic acid binding to membrane preparations of transfected BHK cells; conditions: plus and minus quisqualate, 30 minutes, room temperature
# Experimental: Transfected cell lines expressing GluG R were identified by the binding of ^3 H-glutamate to membrane preparations from transfected cells. Cell lines expressing low to moderate levels of GluG R are used to set up functional screening assays.
# Clones of BHK 570 and BHK TK^- ts13 cells expressing the rat G protein coupled glutamate receptor cDNA were plated in two or three 150 mm maxi-plates culture dishes and were grown to confluency. The cells from each plate were scraped in 5 ml of PBS (phosphate buffered saline, Sigma Chemical Co., St. Louis, Mo.), which was pre-chilled to 4° C. The cells were removed to a chilled centrifuged tube, and the plates were each rinsed with 5 ml of chilled PBS and pooled with the cells. The chilled tubes were spun at 1,000 rpm for two minutes, and the supernatant was discarded. The cells were frozen at either -70° C. or on dry ice. In some cases, the cells were left overnight at -70° C. […] The filters were dried in a microwave oven and counted in a […].
# Protein determinations were carried out using a Coomassie Blue-based assay from Pierce Chemical Company (Rockford, Ill.) under conditions set forth by the manufacturer. One hundred microliters of undiluted cell homogenate or BSA standard was added to 2 ml of reagent and the optical density was measured at 595 nm. […]
# GluG R = assay: Voltage-clamp response to quisqualate of oocytes injected with RNA from a subfractionated rat cerebellum cDNA library pool; type: cell-based; conditions: RNA from subfractionated pool of 14,000 colonies; approximately 100 ng RNA per oocyte; estimated from digital panel meter
# Experimental: Plasmid DNA from plates 25 to 32 were cesium chloride banded and transcribed into RNA as described above along with the positive parent pool Z99-25-32. Oocytes were injected with the RNA and voltage clamp assays, carried out as described above, identified pools Z104-25 and Z111-32 as being weakly positive, Z106-27 and Z109-30 as intermediately positive, and Z108-29 and Z110-31 as the most positive. The pool resulting in Z110-31 was chosen for further subdivision.
# To confirm the result, plasmid DNA from clone #45 was prepared, transcribed and assayed in oocytes as described above. […] FIG. 2 illustrates the data taken from voltage-clamp recordings at several stages in the subfractionation of the cerebellum library. […] The peak current was truncated by the chart recorder, but the actual peak current (estimated from a digital panel meter) was approximately 1300 nA.
# [4] = 100 μM, saturating concentration
smiles,measurement,setting,value
"NC(CP(=O)(O)O)C(=O)O (racemic) [DL-AP3, 2-amino-3-phosphonopropionic acid]","current evoked by 10 μM glutamic acid, reduced to % of the control",[1],59.3±7.3 % of the control
"Cc1onc(O)c1CC(N)C(=O)O (stereo not drawn) [AMPA, α-amino-3-hydroxy-5-methyl-isoxazole-4-propionic acid]",response of oocytes to L-glutamic acid analog (effectiveness),[2]; [4],ineffective
"NC(CCP(=O)(O)O)C(=O)O (centres unmarked) [APB, 2-amino-4-phosphonobytyric acid]",response of oocytes to L-glutamic acid analog (effectiveness),[2]; [4],ineffective
"CN[C@H](CC(=O)O)C(=O)O [NMDA, N-methyl-D-aspartic acid]",response of oocytes to L-glutamic acid analog (effectiveness),[2]; 100 μM NMDA+10 μM glycine,ineffective
"N[C@@H](Cn1oc(=O)[nH]c1=O)C(=O)O [Quisqualic acid, quisqualic acid]",competitive binding to glutamate receptor expressed by transfected BHK cells,[3],able to competitively bind the glutamate receptor
same,peak current in response to quisqualate,GluG R,approximately 1300 nA
N[C@@H](CC(=O)O)C(=O)O [aspartic acid],response of oocytes to L-glutamic acid analog (effectiveness),"[2]; 1 mM, saturating concentration",ineffective
C=C(C)[C@H]1CN[C@H](C(=O)O)[C@H]1CC(=O)O [kainic acid],response of oocytes to L-glutamic acid analog (effectiveness),"[2]; 1 mM, saturating concentration",ineffective
